Results from patent US5409933A, “Quinoline derivatives and processes for preparing the same” (priority 1993, dated 1995).
Structures can show the parent of a compound that is named as a salt. Where two headings read alike, the source gives them in different places.

How the values were obtained:
S. aureus 17740 = assay: Treatment Effect on the Systemic Infection; type: in vivo, NMRI mice; details: 240 h
Description: (§1) 10 fold of the pathogens which lead to 100% lethality were injected intraperitoneally to male and female NMRI mice weighing 18 to 20 g. Immediately and 4 hours after injection, the dose of test compounds, which was determined by two-fold serial dilution method, was administered orally or subcutaneously to the mice, and on the 10th day, the effect was evaluated in terms of ED50 calculated from the number of survived mice by the probit analysis.

P. mirabilis = assay: Treatment Effect on the Systemic Infection; type: in vivo, NMRI mice; details: Proteus mirabilis, in Mus musculus, 240 h
Description: as §1

Escherichia coli DC0 = assay: In Vitro Anti-Bacterial Activity Test (MIC, agar dilution); type: cell-based; details: Muller-Hinton agar, 37° C., 18 hours, read-out: MIC
Outline: (§2)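 Bacterial suspensions of 10^7 C.F.U./ml are inoculated onto Muller-Hinton agar containing graded compound levels. After 18 hours at 37° C., the lowest level showing no growth is recorded as MIC.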

[1] = test system: Staphylococcus aureus 503; assay: as above; type: cell-based; details: Staphylococcus aureus 503; Muller-Hinton agar, 37° C., 18 hours; read-out: MIC
Outline: as §2

[2] = test system: Pseudomonas aeruginosa 1771M; assay: as above; type: cell-based; details: Pseudomonas aeruginosa, 1771M, 18 h, Muller-Hinton agar, 37° C.
Outline: as §2

Escherichia coli TEM = assay: as above; type: cell-based; details: Escherichia coli, 18 h, Muller-Hinton agar, 37° C.
Outline: (§3)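 Strains were inoculated at 10^7 C.F.U./ml onto Mueller-Hinton agar containing serial compound dilutions and incubated 18 hours at 37° C. The minimum inhibitory concentration was read from growth, with ciprofloxacin run as the reference antibacterial.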

[3] = test system: Klebsiella aerogenes 1522E; assay: as above; type: cell-based; details: Klebsiella aerogenes, 1522E, 18 h, Klebsiella aerogenes 1522E; Muller-Hinton agar, 37° C., 18 hours; read-out: MIC
Outline: as §2

Enterobacter cloacae P99 = assay: as above; type: cell-based; details: Enterobacter cloacae, P99, 18 h
Outline: as §3

[4] = test system: Streptococcus faecium MD8b; assay: as above; type: cell-based; details: Enterococcus faecium, Muller-Hinton agar, 37° C., 18 hours, read-out: MIC
Outline: as §2

[5] = test system: Staphylococcus aureus SG511; assay: as above; type: cell-based; details: Staphylococcus aureus SG511; Muller-Hinton agar, 37° C., 18 hours; read-out: MIC
Outline: as §2

[6] = test system: Pseudomonas aeruginosa 1771; assay: as above; type: cell-based; details: Pseudomonas aeruginosa 1771; Muller-Hinton agar, 37° C., 18 hours; read-out: MIC
Outline: as §2

[7] = test system: Pseudomonas aeruginosa 9027; assay: as above; type: cell-based; details: Muller-Hinton agar, 37° C., 18 hours, read-out: MIC
Outline: as §2

[8] = test system: Pseudomonas aeruginosa 1592E; assay: as above; type: cell-based; details: Muller-Hinton agar, 37° C., 18 hours, read-out: MIC
Outline: as §2

[9] = test system: Streptococcus pyogenes 77A; assay: as above; type: cell-based; details: Streptococcus pyogenes, 77A, 18 h
Outline: as §2

Klebsiella oxytoca 1082E = assay: as above; type: cell-based; details: Klebsiella oxytoca 1082E; Muller-Hinton agar, 37° C., 18 hours; read-out: MIC
Outline: as §2

Escherichia coli 1507E = assay: as above; type: cell-based; details: Escherichia coli, 1507E, 18 h, Muller-Hinton agar, 37° C.
Outline: as §2

[10] = test system: Streptococcus pyogenes 308A; assay: as above; type: cell-based; details: Muller-Hinton agar, 37° C., 18 hours, read-out: MIC
Outline: as §2

[11] = test system: Enterobacter cloacae 1321E; assay: as above; type: cell-based; details: Enterobacter cloacae 1321E; Muller-Hinton agar, 37° C., 18 hours; read-out: MIC
Outline: as §2

Escherichia coli 078 = assay: as above; type: cell-based; details: Escherichia coli, 078, 18 h
Outline: as §2

Escherichia coli DC2 = assay: as above; type: cell-based; details: Escherichia coli, DC2, 18 h
Outline: as §2

[12] = test system: Staphylococcus aureus 285; assay: as above; type: cell-based; details: Staphylococcus aureus, 285, 18 h, Staphylococcus aureus 285; Muller-Hinton agar, 37° C., 18 hours; read-out: MIC
Outline: as §2

Salmonella typhimurium = assay: as above; type: cell-based; details: Salmonella enterica; Salmonella typhimurium; Muller-Hinton agar, 37° C., 18 hours; read-out: MIC
Outline: as §2

SMILES	MIC (Escherichia coli DC0)	MIC [1]	MIC [2]	MIC (Escherichia coli TEM)	MIC [3]	MIC (Enterobacter cloacae P99)	MIC [4]	MIC [5]	MIC [6]	MIC [7]	MIC [8]	MIC [9]	MIC (Klebsiella oxytoca 1082E)	MIC (Escherichia coli 1507E)	MIC [10]	MIC [11]	MIC (Escherichia coli 078)	MIC (Escherichia coli DC2)	MIC [12]	MIC (Salmonella typhimurium)	also measured
O=C(O)c1cn(C2CC2)c2cc(N3CCNCC3)c(F)cc2c1=O [Ciprofloxacin, reference compound]																					ED50 (S. aureus 17740; Staphylococcus aureus, 17740, in Mus musculus, po, read-out: ED50 Oral Administration): > 200 mg/kg; ED50 (P. mirabilis; po, read-out: ED50 Oral Administration): 0.82 mg/kg; ED50 (P. mirabilis; sc, read-out: ED50 Subcutaneous Injection): 0.16 mg/kg
CN[C@@H]1CCN(c2c(F)cc3c(=O)c(C(=O)C[N+](=O)[O-])cn(C4CC4)c3c2OC)C1 [Example 64, 1-cyclopropyl-6-fluoro-8-methoxy-7-(3-3R-methylaminopyrrolidin-1-yl)-3-(2-nitroacetyl)-1,4-dihydro-4-oxoquinoline hydrochloride]	0.391 µg/mL	0.098 µg/mL	0.781 µg/mL	0.049 µg/mL	0.098 µg/mL	0.049 µg/mL	0.391 µg/mL	0.391 µg/mL	0.781 µg/mL	1.56 µg/mL	1.56 µg/mL	0.781 µg/mL	0.007 µg/mL	0.098 µg/mL	0.781 µg/mL	0.049 µg/mL	0.049 µg/mL	0.049 µg/mL	0.098 µg/mL	0.013 µg/mL	
CN[C@H]1CCN(c2c(F)cc3c(=O)c(C(=O)C[N+](=O)[O-])cn(C4CC4)c3c2OC)C1 [Example 65, 1-cyclopropyl-6-fluoro-8-methoxy-7-(3-3S-methylaminopyrrolidin-1-yl)-3-(2-nitroacetyl)-1,4-dihydro-4-oxoquinoline hydrochloride]	0.781 µg/mL	0.098 µg/mL	1.56 µg/mL	0.049 µg/mL	0.049 µg/mL	0.013 µg/mL	0.781 µg/mL	0.049 µg/mL	1.56 µg/mL	1.56 µg/mL	1.56 µg/mL	0.781 µg/mL	0.049 µg/mL	0.195 µg/mL	0.781 µg/mL	0.013 µg/mL	0.049 µg/mL	0.195 µg/mL	0.049 µg/mL	0.781 µg/mL	
CNC1CCN(c2c(F)cc3c(=O)c(C(=O)C[N+](=O)[O-])cn(C4CC4)c3c2OC)C1 (stereo not shown) [Example 66, 1-cyclopropyl-6-fluoro-8-methoxy-7-(3-methylaminopyrrolidin-1-yl)-3-(2-nitroacetyl)-1,4-dihydro-4-oxoquinoline hydrochloride]	0.781 µg/mL	0.098 µg/mL	1.56 µg/mL	0.195 µg/mL	0.013 µg/mL	0.195 µg/mL	0.781 µg/mL	0.391 µg/mL	1.56 µg/mL	1.56 µg/mL	1.56 µg/mL	0.781 µg/mL	0.098 µg/mL	0.391 µg/mL	1.56 µg/mL	0.049 µg/mL	0.098 µg/mL	0.195 µg/mL	0.391 µg/mL	0.781 µg/mL	
CC1COc2c(N3CCN(C)CC3)c(F)cc3c(=O)c(C(=O)O)cn1c23 (stereo not shown) [Ofloxacin, reference compound]																					ED50 (S. aureus 17740; Staphylococcus aureus, in Mus musculus, S. aureus 17740, oral, immediately and 4 hours after infection, survival on 10th day, read-out: ED50 Oral Administration): > 200 mg/kg; ED50 (S. aureus 17740; Staphylococcus aureus, in Mus musculus, sc, S. aureus 17740, subcutaneous, immediately and 4 hours after infection, survival on 10th day, read-out: ED50 Subcutaneous Injection): 200 mg/kg; ED50 (P. mirabilis; P. mirabilis, oral, immediately and 4 hours after infection, survival on 10th day, read-out: ED50 Oral Administration): 1.64 mg/kg; ED50 (P. mirabilis; sc, P. mirabilis, subcutaneous, immediately and 4 hours after infection, survival on 10th day, read-out: ED50 Subcutaneous Injection): 0.33 mg/kg
